Source: ChEMBL document CHEMBL4219129, “Design, synthesis and biological evaluation of spiropyrimidinetriones oxazolidinone derivatives as antibacterial agents” (2018)
In brackets after ≈: the same amount, converted by molar mass.

Key:
Type in all cases: functional
Staphylococcus aureus [1] = assay: Antibacterial activity against methicillin-resistant Staphylococcus aureus DB-00026
Escherichia coli [2] = assay: Antibacterial activity against TolC-deficient Escherichia coli
Staphylococcus aureus [3] = assay: Antibacterial activity against methicillin-resistant Staphylococcus aureus 1201984
[4] = system: Staphylococcus epidermidis; assay: Antibacterial activity against methicillin-resistant Staphylococcus epidermidis ATCC 35984
Staphylococcus aureus [5] = assay: Antibacterial activity against […] Staphylococcus aureus ATCC 13709 SMITH
[6] = system: Staphylococcus epidermidis; assay: Antibacterial activity against Staphylococcus epidermidis ATCC 12228
Staphylococcus aureus [7] = assay: Antibacterial activity against Staphylococcus aureus ATCC 29213
Staphylococcus aureus [8] = assay: Antibacterial activity against linezolid-resistant Staphylococcus aureus O-128
[9] = system: Staphylococcus epidermidis; assay: Antibacterial activity against linezolid-resistant Staphylococcus epidermidis 1089191
Staphylococcus aureus [10] = assay: Antibacterial activity against methicillin-resistant Staphylococcus aureus 562
Staphylococcus aureus [11] = assay: Antibacterial activity against Staphylococcus aureus Mu50 ATCC 700699
Staphylococcus aureus [12] = assay: Antibacterial activity against PVL positive Staphylococcus aureus
[13] = system: Staphylococcus epidermidis; assay: Antibacterial activity against linezolid-resistant Staphylococcus epidermidis 1117174
Staphylococcus aureus [14] = assay: Antibacterial activity against methicillin-resistant Staphylococcus aureus USA300 BAA-1556
Staphylococcus aureus [15] = assay: Antibacterial activity against Staphylococcus aureus FDA 209P
Escherichia coli [16] = assay: Antibacterial activity against Escherichia coli MG1655; details: K-12 substr. MG1655

SMILES	MIC (Staphylococcus aureus [1])	MIC (Escherichia coli [2])	MIC (Staphylococcus aureus [3])	MIC [4]	MIC (Staphylococcus aureus [5])	MIC [6]	MIC (Staphylococcus aureus [7])	MIC (Staphylococcus aureus [8])	MIC [9]	MIC (Staphylococcus aureus [10])	MIC (Staphylococcus aureus [11])	MIC (Staphylococcus aureus [12])	MIC [13]	MIC (Staphylococcus aureus [14])	MIC (Staphylococcus aureus [15])	MIC (Escherichia coli [16])
CS(=O)(=O)NC[C@H]1CN(c2ccc(-c3ccc4c(c3)CC3(C(=O)NC(=O)NC3=O)C3COCCN43)c(F)c2)C(=O)O1 (some centres undefined)	32 µg/mL (≈ 54.5 µM)	32 µg/mL (≈ 54.5 µM)	32 µg/mL (≈ 54.5 µM)	16 to 32 µg/mL (≈ 27.2 to 54.5 µM)	> 32 µg/mL	16 to 32 µg/mL (≈ 27.2 to 54.5 µM)	32 µg/mL (≈ 54.5 µM)	> 32 µg/mL	> 32 µg/mL	32 µg/mL (≈ 54.5 µM)	16 µg/mL (≈ 27.2 µM)	32 µg/mL (≈ 54.5 µM)	> 32 µg/mL	32 µg/mL (≈ 54.5 µM)	32 µg/mL (≈ 54.5 µM)	> 32 µg/mL
CC(=O)NC[C@H]1CN(c2ccc(-c3ccc4c(c3)CC3(C(=O)NC(=O)NC3=O)C3COCCN43)c(F)c2)C(=O)O1 (some centres undefined)	8 µg/mL (≈ 14.5 µM)	2 µg/mL (≈ 3.63 µM)	16 µg/mL (≈ 29 µM)	2 µg/mL (≈ 3.63 µM)	32 µg/mL (≈ 58 µM)	4 µg/mL (≈ 7.25 µM)	4 µg/mL (≈ 7.25 µM)	32 µg/mL (≈ 58 µM)	> 32 µg/mL	4 µg/mL (≈ 7.25 µM)	4 µg/mL (≈ 7.25 µM)	8 µg/mL (≈ 14.5 µM)	32 µg/mL (≈ 58 µM)	8 µg/mL (≈ 14.5 µM)	8 µg/mL (≈ 14.5 µM)	> 32 µg/mL
COC(=O)C1(C(=O)OC)Cc2cc(-c3ccc(N4C[C@H](CNC(C)=O)OC4=O)cc3F)ccc2N2CCOCC21 (some centres undefined)	16 µg/mL (≈ 28.8 µM)	16 µg/mL (≈ 28.8 µM)	4 µg/mL (≈ 7.2 µM)	4 µg/mL (≈ 7.2 µM)	> 32 µg/mL	4 µg/mL (≈ 7.2 µM)	8 µg/mL (≈ 14.4 µM)	32 µg/mL (≈ 57.6 µM)	> 32 µg/mL	4 µg/mL (≈ 7.2 µM)	8 µg/mL (≈ 14.4 µM)	4 µg/mL (≈ 7.2 µM)	32 µg/mL (≈ 57.6 µM)	16 µg/mL (≈ 28.8 µM)	16 µg/mL (≈ 28.8 µM)	> 32 µg/mL
CCOC(=O)NC[C@H]1CN(c2ccc(-c3ccc4c(c3)CC3(C(=O)NC(=O)NC3=O)C3CCCN43)c(F)c2)C(=O)O1 (some centres undefined)	8 µg/mL (≈ 14.1 µM)	8 µg/mL (≈ 14.1 µM)	8 µg/mL (≈ 14.1 µM)	4 µg/mL (≈ 7.07 µM)	> 32 µg/mL	4 µg/mL (≈ 7.07 µM)	8 µg/mL (≈ 14.1 µM)	32 µg/mL (≈ 56.6 µM)	> 32 µg/mL	4 µg/mL (≈ 7.07 µM)	4 µg/mL (≈ 7.07 µM)	8 µg/mL (≈ 14.1 µM)	> 32 µg/mL	8 µg/mL (≈ 14.1 µM)	8 µg/mL (≈ 14.1 µM)	> 32 µg/mL
O=C1NC(=O)C2(Cc3cc(-c4ccc(N5C[C@H](CO)OC5=O)cc4F)ccc3N3CCOCC32)C(=O)N1 (some centres undefined)	8 µg/mL (≈ 15.7 µM)	4 µg/mL (≈ 7.84 µM)	16 µg/mL (≈ 31.3 µM)	2 µg/mL (≈ 3.92 µM)	32 µg/mL (≈ 62.7 µM)	4 µg/mL (≈ 7.84 µM)	8 µg/mL (≈ 15.7 µM)	32 µg/mL (≈ 62.7 µM)	> 32 µg/mL	4 µg/mL (≈ 7.84 µM)	4 µg/mL (≈ 7.84 µM)	8 µg/mL (≈ 15.7 µM)	32 µg/mL (≈ 62.7 µM)	8 µg/mL (≈ 15.7 µM)	8 µg/mL (≈ 15.7 µM)	> 32 µg/mL
CS(=O)(=O)NC[C@H]1CN(c2ccc(-c3ccc4c(c3)CC3(C(=O)NC(=O)NC3=O)C3CCCN43)c(F)c2)C(=O)O1 (some centres undefined)	16 µg/mL (≈ 28 µM)	16 µg/mL (≈ 28 µM)	8 µg/mL (≈ 14 µM)	4 µg/mL (≈ 7 µM)	> 32 µg/mL	8 µg/mL (≈ 14 µM)	16 µg/mL (≈ 28 µM)	32 µg/mL (≈ 56 µM)	> 32 µg/mL	8 µg/mL (≈ 14 µM)	8 µg/mL (≈ 14 µM)	8 µg/mL (≈ 14 µM)	32 µg/mL (≈ 56 µM)	16 µg/mL (≈ 28 µM)	16 µg/mL (≈ 28 µM)	> 32 µg/mL
COC(=O)NC[C@H]1CN(c2ccc(-c3ccc4c(c3)CC3(C(=O)NC(=O)NC3=O)C3COCCN43)c(F)c2)C(=O)O1 (some centres undefined)	8 µg/mL (≈ 14.1 µM)	4 µg/mL (≈ 7.05 µM)	16 µg/mL (≈ 28.2 µM)	2 µg/mL (≈ 3.52 µM)	> 32 µg/mL	4 µg/mL (≈ 7.05 µM)	4 µg/mL (≈ 7.05 µM)	32 µg/mL (≈ 56.4 µM)	> 32 µg/mL	4 µg/mL (≈ 7.05 µM)	4 µg/mL (≈ 7.05 µM)	8 µg/mL (≈ 14.1 µM)	32 µg/mL (≈ 56.4 µM)	8 µg/mL (≈ 14.1 µM)	8 µg/mL (≈ 14.1 µM)	> 32 µg/mL
CCOC(=O)NC[C@H]1CN(c2ccc(-c3ccc4c(c3)CC3(C(=O)NC(=O)NC3=O)C3COCCN43)c(F)c2)C(=O)O1 (some centres undefined)	16 µg/mL (≈ 27.5 µM)	8 µg/mL (≈ 13.8 µM)	32 µg/mL (≈ 55 µM)	8 µg/mL (≈ 13.8 µM)	> 32 µg/mL	8 µg/mL (≈ 13.8 µM)	16 µg/mL (≈ 27.5 µM)	> 32 µg/mL	> 32 µg/mL	8 µg/mL (≈ 13.8 µM)	8 µg/mL (≈ 13.8 µM)	32 µg/mL (≈ 55 µM)	32 µg/mL (≈ 55 µM)	16 µg/mL (≈ 27.5 µM)	16 µg/mL (≈ 27.5 µM)	> 32 µg/mL
O=C1NC(=O)C2(Cc3cc(N4C[C@H](CO)OC4=O)ccc3N3CCOCC32)C(=O)N1 (some centres undefined)	> 32 µg/mL	> 32 µg/mL	> 32 µg/mL	> 32 µg/mL	> 32 µg/mL	> 32 µg/mL	> 32 µg/mL	> 32 µg/mL	> 32 µg/mL	> 32 µg/mL	> 32 µg/mL	> 32 µg/mL	32 µg/mL (≈ 76.9 µM)	> 32 µg/mL	> 32 µg/mL	> 32 µg/mL
